Results as given in PubChem BioAssay AID330 (DTP/NCI, 2004).
Where “and” joins values, the source holds several entries; their conditions need not be identical. Equal values may be shown once. Inconclusive results and toxic doses are left out. Rule for the calls: active = survival T/C of 150% or more; inactive = T/C below 125% in these data.

Tested on: P388 leukemia ip, CD2F1 mice, survival T/C
Test: NCI In Vivo Anticancer Drug Screen. Data for tumor model P388 Leukemia (intraperitoneal) in CD2F1 (CDF1) mice
Settings: endpoint: median survival time, higher = longer survival
Summary of the method: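 Mice carrying the transplanted tumor received test compound or vehicle. Survival was recorded in each group, and the value is the treated-group measurement divided by that of the vehicle-treated control group.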

[1] = dose: 50.0 mg/kg/injection, schedule: Q01DX005 (ip), vehicle: saline with Tween-80
[2] = dose: 100.0 mg/kg/injection, schedule: Q01DX005 (ip), vehicle: saline with Tween-80
[3] = dose: 200.0 mg/kg/injection, schedule: Q01DX005 (ip), vehicle: saline with Tween-80
[4] = dose: 12.5 mg/kg/injection, schedule: Q01DX009 (ip), vehicle: saline with Tween-80
[5] = dose: 25.0 mg/kg/injection, schedule: Q01DX009 (ip), vehicle: saline with Tween-80
[6] = dose: 50.0 mg/kg/injection, schedule: Q01DX009 (ip), vehicle: saline with Tween-80
[7] = dose: 50.0 mg/kg/injection, schedule: Q01DX005 (ip), vehicle: Klucel (hydroxypropylcellulose) (HPC)
[8] = dose: 50.0 mg/kg/injection, schedule: Q01DX009 (ip), vehicle: saline
[9] = dose: 100.0 mg/kg/injection, schedule: Q01DX009 (ip), vehicle: saline
[10] = dose: 25.0 mg/kg/injection, schedule: Q01DX009 (ip), vehicle: other
[11] = dose: 50.0 mg/kg/injection, schedule: Q01DX009 (ip), vehicle: other
[12] = dose: 100.0 mg/kg/injection, schedule: Q01DX009 (ip), vehicle: other
[13] = dose: 200.0 mg/kg/injection, schedule: Q01DX009 (ip), vehicle: other
[14] = dose: 100.0 mg/kg/injection, schedule: Q01DX009 (ip), vehicle: saline with Tween-80
[15] = dose: 200.0 mg/kg/injection, schedule: Q01DX009 (ip), vehicle: saline with Tween-80
[16] = dose: 50.0 mg/kg/injection, schedule: Q04DX003 (ip), vehicle: saline with Tween-80
[17] = dose: 100.0 mg/kg/injection, schedule: Q04DX003 (ip), vehicle: saline with Tween-80

Measured: T/C

Cc1ccc2c(c1)CCCc1c-2nn(-c2ccccc2)c1-c1ccc(Cl)cc1
inactive: [1] 86 % of control | [2] 92 % of control | [3] 90 % of control

CON(C)CC(Cl)c1ccccc1 (stereo not drawn)
inactive: [4] 109 % of control | [5] 109 % of control | [6] 104 % of control

Cn1c(=O)c2c(ncn2-c2ccc(N)cn2)n(C)c1=O
inactive: dose: 12.5 mg/kg/injection, schedule: Q01DX005 (ip), vehicle: distilled water + alcohol 98 % of control | dose: 25.0 mg/kg/injection, schedule: Q01DX005 (ip), vehicle: distilled water + alcohol 104 % of control | [7] 96 % of control | dose: 50.0 mg/kg/injection, schedule: Q01DX005 (ip), vehicle: distilled water + alcohol 100 % of control

O=CNNc1nn2cnnc2c2ccccc12
inactive: [8] 97 % of control | [9] 94 % of control | dose: 200.0 mg/kg/injection, schedule: Q01DX009 (ip), vehicle: saline 102 % of control

COc1ccc(SC(N(C)C)=[N+](C)C)cc1
inactive: dose: 15.0 mg/kg/injection, schedule: Q01DX005 (ip), vehicle: saline 100 % of control | dose: 30.0 mg/kg/injection, schedule: Q01DX005 (ip), vehicle: saline 100 % of control | dose: 60.0 mg/kg/injection, schedule: Q01DX005 (ip), vehicle: saline 102 % of control and 121 % of control

CCN(CC)CCCNc1ccc([N+](=O)[O-])c2no[n+]([O-])c12
inactive: [8] 99 % of control | [9] 100 % of control

[CH3][Sn]([CH3])([Cl])[CH2]CC[CH2][Sn]([CH3])([Cl])[Cl]
inactive: dose: 0.78 mg/kg/injection, schedule: Q01DX009 (ip), vehicle: saline 99 % of control | dose: 1.56 mg/kg/injection, schedule: Q01DX009 (ip), vehicle: saline 89 % of control | dose: 3.12 mg/kg/injection, schedule: Q01DX009 (ip), vehicle: saline 89 % of control

CSc1cccc(NC(=O)Oc2ccc([N+](=O)[O-])cc2Cl)c1
inactive: dose: 6.25 mg/kg/injection, schedule: Q01DX009 (ip), vehicle: DMSO 100 % of control | dose: 12.5 mg/kg/injection, schedule: Q01DX009 (ip), vehicle: DMSO 93 % of control

CCCOc1cc2c(cc1C(C)(C)c1ccc(OC)cc1)OCO2
inactive: dose: 50.0 mg/kg/injection, schedule: Q01DX005 (ip), vehicle: saline + Tween-80 + alcohol 102 % of control | dose: 100.0 mg/kg/injection, schedule: Q01DX005 (ip), vehicle: saline + Tween-80 + alcohol 111 % of control | dose: 200.0 mg/kg/injection, schedule: Q01DX005 (ip), vehicle: saline + Tween-80 + alcohol 95 % of control

COC(=O)N1c2ccccc2C(c2ccccc2)=NC1C#N (stereo not drawn)
inactive: dose: 7.5 mg/kg/injection, schedule: Q01DX005 (ip), vehicle: saline with Tween-80 103 % of control | dose: 15.0 mg/kg/injection, schedule: Q01DX005 (ip), vehicle: saline with Tween-80 112 % of control | dose: 30.0 mg/kg/injection, schedule: Q01DX005 (ip), vehicle: saline with Tween-80 103 % of control

COC(=O)CNC(=O)C(Cc1c[nH]c2ccccc12)NC(=O)OC(C)(C)C (stereo not drawn)
inactive: dose: 12.5 mg/kg/injection, schedule: Q01DX009 (ip), vehicle: other 96 % of control | [10] 89 % of control | [11] 89 % of control | [12] 90 % of control | [13] 97 % of control

CCCCCCCCCCCCOc1ccccc1
inactive: [6] 100 % of control | [14] 104 % of control | [15] 100 % of control

COc1ccc(N2C(=O)CCSC23C(=O)N(CN2CCOCC2)c2ccccc23)cc1 (stereo not drawn)
inactive: [1] 103 % of control | [2] 106 % of control | [3] 95 % of control

O=C/C=C/c1cccc([N+](=O)[O-])c1
inactive: [6] 113 % of control | [14] 113 % of control | [15] 104 % of control

C[CH2][Sn]([CH2]C)([n]1cnc2ccccc21)[n]1cnc2ccccc21
inactive: dose: 1.56 mg/kg/injection, schedule: Q01DX005 (ip), vehicle: Klucel (hydroxypropylcellulose) (HPC) 120 % of control | dose: 3.12 mg/kg/injection, schedule: Q01DX005 (ip), vehicle: Klucel (hydroxypropylcellulose) (HPC) 123 % of control | dose: 6.25 mg/kg/injection, schedule: Q01DX005 (ip), vehicle: Klucel (hydroxypropylcellulose) (HPC) 109 % of control and 122 % of control

CN1[C@@H](CC(=O)c2ccccc2)CCC[C@H]1CC(=O)c1ccccc1
inactive: dose: 25.0 mg/kg/injection, schedule: Q01DX009 (ip), vehicle: saline 95 % of control | [8] 103 % of control | [9] 102 % of control

COc1ccc(C(=O)c2ncccc2C(=O)O)cc1OC
inactive: [10] 93 % of control | [11] 88 % of control | [12] 100 % of control | [13] 97 % of control | dose: 400.0 mg/kg/injection, schedule: Q01DX009 (ip), vehicle: other 94 % of control

Cc1ccc2c(c1)C(=S)NC(=O)C2
inactive: dose: 12.5 mg/kg/injection, schedule: Q01DX009 (ip), vehicle: distilled water + Tween-80 87 % of control | dose: 50.0 mg/kg/injection, schedule: Q01DX009 (ip), vehicle: distilled water + Tween-80 93 % of control | dose: 100.0 mg/kg/injection, schedule: Q01DX009 (ip), vehicle: distilled water + Tween-80 91 % of control | dose: 200.0 mg/kg/injection, schedule: Q01DX009 (ip), vehicle: distilled water + Tween-80 95 % of control

Cc1ccc2c(c1)C(C(F)(F)F)(C(F)(F)F)OC(C(F)(F)F)(C(F)(F)F)N2
inactive: [16] 104 % of control | [17] 100 % of control | dose: 200.0 mg/kg/injection, schedule: Q04DX003 (ip), vehicle: saline with Tween-80 108 % of control

Cc1ccc(C2OC(N)=C(O)C2=O)cc1 (stereo not drawn)
inactive: dose: 60.0 mg/kg/injection, schedule: Q01DX005 (ip), vehicle: Klucel (hydroxypropylcellulose) (HPC) 107 % of control | dose: 120.0 mg/kg/injection, schedule: Q01DX005 (ip), vehicle: Klucel (hydroxypropylcellulose) (HPC) 100 % of control | dose: 240.0 mg/kg/injection, schedule: Q01DX005 (ip), vehicle: Klucel (hydroxypropylcellulose) (HPC) 93 % of control

O=C(O)C(Cc1ccsc1)NC(=O)C(F)(F)F (stereo not drawn)
inactive: dose: 50.0 mg/kg/injection, schedule: Q01DX009 (ip), vehicle: saline + alcohol 94 % of control | dose: 100.0 mg/kg/injection, schedule: Q01DX009 (ip), vehicle: saline + alcohol 99 % of control | dose: 200.0 mg/kg/injection, schedule: Q01DX009 (ip), vehicle: saline + alcohol 98 % of control

Cc1nc2ccccc2nc1C1=C(O)c2ccccc2CC1=O
inactive: dose: 60.0 mg/kg/injection, schedule: Q01DX005 (ip), vehicle: saline with Tween-80 95 % of control | dose: 120.0 mg/kg/injection, schedule: Q01DX005 (ip), vehicle: saline with Tween-80 90 % of control | dose: 240.0 mg/kg/injection, schedule: Q01DX005 (ip), vehicle: saline with Tween-80 93 % of control

CN(C)CC/C=C1\c2ccccc2Sc2ccc(Cl)cc21
inactive: dose: 12.5 mg/kg/injection, schedule: Q01DX005 (ip), vehicle: Klucel (hydroxypropylcellulose) (HPC) 107 % of control and 112 % of control | dose: 25.0 mg/kg/injection, schedule: Q01DX005 (ip), vehicle: Klucel (hydroxypropylcellulose) (HPC) 117 % of control and 120 % of control | [7] 117 % of control

CCS(=O)(=O)CCN1C(=O)CN=C(c2ccccc2F)c2cc(Cl)ccc21
inactive: [4] 102 % of control | [5] 104 % of control | [6] 103 % of control | [14] 110 % of control

COc1cc(C2NC(=S)NC2=S)ccc1O (stereo not drawn)
inactive: dose: 25.0 mg/kg/injection, schedule: Q04DX003 (ip), vehicle: saline with Tween-80 109 % of control | [16] 104 % of control | [17] 109 % of control

N#CC(C(O)c1ccccc1)N1CCCCC1 (stereo not drawn)
inactive: dose: 50.0 mg/kg/injection, schedule: Q01DX009 (ip), vehicle: suspension in saline 111 % of control | dose: 100.0 mg/kg/injection, schedule: Q01DX009 (ip), vehicle: suspension in saline 100 % of control | dose: 200.0 mg/kg/injection, schedule: Q01DX009 (ip), vehicle: suspension in saline 92 % of control
